Test results from US8586611B2 (priority 2005, dated 2013).

Legend:
Assay type in all cases: in vivo
Plasmopara viticola = assay: Test B: grape downy mildew, spray 24 h after inoculation (disease rating, 100 = 100% disease control)
Method in brief: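 This is a curative spray test, applied 24 h after inoculation. Compounds in 50/50 acetone–water with 250 ppm Trem 014 surfactant were sprayed to run-off on P. viticola-infected seedlings, with 200 ppm equating to 500 g/ha. Plants were kept 5 days in a 20 °C growth chamber, then 24 h humid, and scored 0–100 for disease control relative to controls.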

[1] = system: Erysiphe graminis f. sp. tritici; assay: Test E: wheat powdery mildew, spray the day before inoculation (disease rating, 100 = 100% disease control)
Method in brief: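 Protective test: spores of E. graminis f. sp. tritici dusted on wheat seedlings one day after run-off spraying of test suspension (acetone/water with 250 ppm surfactant; 200 ppm = 500 g/ha). Ratings after 7 days in growth chamber at 20° C, 100 = full control, 0 = none, relative to controls.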

[2] = system: Pseudoperonospora cubensis; assay: Test F: cucumber downy mildew, DMSO/acetone/water test suspension, spray the day before inoculation (disease rating, 100 = 100% disease control)
Source text: The test compounds were first dissolved in dimethyl sulfoxide (DMSO) in an amount equal to 4% of the final volume and then suspended at the desired concentration (in ppm) in acetone and purified water (30/70 mix by volume). The resulting test suspensions were then used in test F. Spraying a 250 ppm test suspension on the test plants was the equivalent of a rate of 250 g/ha.
The test suspension was sprayed on cucumber seedlings. The following day the seedlings were inoculated with a spore suspension of Pseudoperonospora cubensis (the causal agent of cucumber downy mildew) and incubated in a saturated atmosphere at 20° C. for 24 h, and then moved to a growth chamber at 20° C. for 6 days, after which disease ratings were made.
Results for Tests A-F are given in Table A. In the table, a rating of 100 indicates 100% disease control and a rating of 0 indicates no disease control (relative to the controls). A dash (-) indicates no test results.

Phytophthora infestans [3] = assay: whole plant or invertebrate; settings: tomato late blight
Phytophthora infestans [4] = assay: whole plant or invertebrate; settings: tomato late blight; remark: listed apart in the source
[5] = spray 24 h after inoculation, compounds without asterisk (not 40 or 10 ppm)
[6] = spray the day before inoculation, compounds without asterisk (not 40 or 10 ppm)
[7] = DMSO/acetone/water suspension, spray the day before inoculation, compounds without asterisk
[8] = spray 17 h after inoculation, compounds without asterisk (not 40 or 10 ppm)

Row | SMILES | Test B disease rating (100 = 100% disease control, 0 = no disease control) (Plasmopara viticola; sprayed 24 h after inoculation, unmarked compounds (no asterisk, not 40 or 10 ppm)) | Test E disease rating (100 = 100% disease control, 0 = no disease control) ([1]; sprayed the day before inoculation, 7 days at 20° C., unmarked compounds (no asterisk, not 40 or 10 ppm)) | Test F disease rating (100 = 100% disease control, 0 = no disease control) ([2]; DMSO/acetone/water test suspension, sprayed the day before inoculation, unmarked compounds (no asterisk)) | Test D disease rating (100 = 100% disease control, 0 = no disease control) (Phytophthora infestans [3]; sprayed 17 h after inoculation, unmarked compounds (no asterisk, not 40 or 10 ppm)) | Test C disease rating (100 = 100% disease control, 0 = no disease control) (Phytophthora infestans [4]; sprayed the day before inoculation, unmarked compounds (no asterisk, not 40 or 10 ppm)) | Test B disease rating (100 = 100% disease control, 0 = no disease control) (Plasmopara viticola; [5]) | Test E disease rating (100 = 100% disease control, 0 = no disease control) [1, 6] | Test F disease rating (100 = 100% disease control, 0 = no disease control) [2, 7] | Test D disease rating (100 = 100% disease control, 0 = no disease control) (Phytophthora infestans [3]; [8]) | Test C disease rating (100 = 100% disease control, 0 = no disease control) (Phytophthora infestans [4]; [6])
1 | COc1ccc([C@@H](C)NC(=O)c2csc(C3CCN(C(=O)Cc4cccc(Br)c4)CC3)n2)cc1 [compound 279] | 0 | 0 | 0 | 0 | 0 | – | – | – | – | –
2 | CCc1cccc(CC(=O)N2CCC(c3nc(C(=O)N(C)[C@H](C)c4ccccc4)cs3)CC2)c1 [compound 119] | – | – | – | – | – | 95% | 89% | 100% | 33% | 99%
3 | C[C@H](c1ccccc1)N(C)C(=O)c1coc(N2CCN(C(=O)Cc3cccc(C(F)(F)F)c3)CC2)n1 [compound 55] | – | – | – | – | – | 7% | 0% | 47% | 92% | 100%
4 | COc1cccc([C@@H](C)N(C)C(=O)c2csc(C3CCN(C(=O)Cc4cc(C)ccc4C)CC3)n2)c1 [compound 69] | – | – | – | – | – | 88% | 29% | 100% | 0% | 100%
5 | Cc1ccc(C)c(CC(=O)N2CCC(c3nc(C(=O)N(C)[C@H](C)c4ccccc4F)cs3)CC2)c1 [compound 57] | – | – | – | – | – | 100% | 50% | 99% | 94% | 100%
6 | Cc1ccc(C)c(CC(=O)N2CCN(c3nc(C(=O)N(C)[C@H](C)c4ccccc4)co3)CC2)c1 [compound 50] | – | – | – | – | – | 55% | 0% | 100% | 99% | 100%
7 | Cc1ccc([C@@H](C)N(C)C(=O)c2csc(C3CCN(C(=O)Cc4cc(C)ccc4C)CC3)n2)cc1 [compound 62] | – | – | – | – | – | 92% | 29% | 43% | 24% | 92%
8 | Cc1cccc(CC(=O)N2CCN(c3nc(C(=O)N(C)[C@H](C)c4ccccc4)co3)CC2)c1 [compound 52] | – | – | – | – | – | 20% | 0% | 96% | 74% | 100%
9 | Cc1ccc(C)c(CC(=O)N2CCC(c3nc(C(=O)N(C)C(C)(C)Cc4ccc(F)cc4)cs3)CC2)c1 [compound 175] | – | – | – | – | – | 93% | 0% | 43% | 0% | 95%
